From ChEMBL document CHEMBL4130368, “Thienopyrimidine derivatives exert their anticancer efficacy via apoptosis induction, oxidative stress and mitotic catastrophe” (Eur J Med Chem, 2017)

How the values were obtained:
A2780 [1] = test: Cell cycle arrest in human A2780 cells assessed as accumulation at G2 phase at 2 uM measured after overnight incubation by propidium iodide staining-based flow cytometry (reference value: 24.9%); format: functional
HCT-116 [2] = test: Induction of apoptosis in human HCT116 cells assessed as necrotic cells at 1 uM measured after overnight incubation by mitotracker red/alexa fluor-488 Annexin V staining-based flow cytometry (reference value: 2.67%); format: functional
[3] = Selectivity index, ratio of IC50 for CHO cells to IC50 for human A2780 cells; format: toxicity; settings: Chinese hamster (CHO cells), CHO cells versus A2780 cells, read-out: Ratio IC50
CHO = test: Cytotoxicity against CHO cells assessed as reduction in cell survival after 72 hrs by MTT assay; format: ADME, cell-based; settings: Cricetulus griseus
A2780 [4] = test: Induction of apoptosis in human A2780 cells assessed as early apoptotic cells at 1 uM measured after overnight incubation by mitotracker red/alexa fluor-488 Annexin V staining-based flow cytometry (reference value: 11.9%); format: functional
A2780 [5] = test: Induction of apoptosis in human A2780 cells assessed as late apoptotic cells at 1 uM measured after overnight incubation by mitotracker red/alexa fluor-488 Annexin V staining-based flow cytometry (reference value: 0.015%); format: functional
HCT-116 [6] = test: Cell cycle arrest in human HCT116 cells assessed as accumulation at subG1 phase at 1 uM measured after overnight incubation by propidium iodide staining-based flow cytometry (reference value: 0.154%); format: functional
HCT-116 [7] = test: Cell cycle arrest in human HCT116 cells assessed as accumulation at subG1 phase at 2 uM measured after overnight incubation by propidium iodide staining-based flow cytometry (reference value: 0.154%); format: functional
A2780 [8] = test: Cell cycle arrest in human A2780 cells assessed as accumulation at G1 phase at 2 uM measured after overnight incubation by propidium iodide staining-based flow cytometry (reference value: 51.1%); format: functional

COc1ccc(-c2nc(O)c3c4c(sc3n2)CCCC4)cc1
Activity (A2780 [1]): 63.5% | Activity (HCT-116 [2]): 1.48% | selectivity ratio [3]: 17 to 28 | IC50 (CHO): 14 µM | Activity (A2780 [4]): 25.8% | Activity (A2780 [5]): 0% | Activity (HCT-116 [6]): 0.087% | Activity (HCT-116 [7]): 0.097% | Activity (A2780 [8]): 15.5%
